Values joined by “and” are separate entries in the source; they are usually repeats but may differ in a detail not shown here. Equal entries are not always repeated. “Also recorded” adds a separate entry of the source. Where two headings read alike, the source gives them in different places.
Experiments:
hTAAR5 [1] = target: T1, hTAAR5 (Homo sapiens, UniProt O14804); conditions: agonist; cited from earlier work
T1 construct: expressed in transfected cells; host or cells: HANA3A cells
T1 sequence (O14804 1-337): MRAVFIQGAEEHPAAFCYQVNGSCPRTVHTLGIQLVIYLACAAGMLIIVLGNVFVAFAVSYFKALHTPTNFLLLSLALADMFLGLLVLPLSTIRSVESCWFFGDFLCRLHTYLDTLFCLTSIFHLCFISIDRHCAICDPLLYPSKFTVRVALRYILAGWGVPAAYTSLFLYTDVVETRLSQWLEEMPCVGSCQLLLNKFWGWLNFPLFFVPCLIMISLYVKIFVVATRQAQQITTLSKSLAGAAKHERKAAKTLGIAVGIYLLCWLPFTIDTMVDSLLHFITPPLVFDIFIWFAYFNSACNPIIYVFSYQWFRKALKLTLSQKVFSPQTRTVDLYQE

humans = conditions: in vivo; cited from earlier work
panelists = assay: Olfactory detection threshold of TMA, 3-alternative forced-choice, ISO 13301; type: in vivo, human; conditions: for olfactory detection threshold of TMA: buffered aqueous solution pH 9; for influence of additive on TMA detection threshold / perception: 1% Timberol or 0.1% Mugetanol (isointense)
Protocol: In addition, olfactory detection thresholds were assessed in aqueous solutions using a best estimate threshold approach as described in ISO 13301. In brief, samples containing different concentrations of analyte were presented in ascending order in a 3-alternative forced-choice design. Each concentration set consisted of three samples with one deviating sample containing a defined amount of trimethylamine. Samples were presented in amber vials (30 ml) coded with three digits and filled with 10 ml of solution, and panelists were required to designate the sample that differed from the others.
Thresholds of TMA were measured in buffered aqueous solution i) without additive ii) with 1% (m/m) Timberol® and iii) with 0.1% Mugetanol (isointense to 1% Timberol®). These experiments were performed separately on different days with the same panelists. In the case of testing in the presence of fragrance components (Timberol® or Mugetanol), all three samples of a given concentration set contained the same amount of fragrance components and differed only in the presence/absence of TMA. In each session, a total of 10 concentration sets ranging from […] to 1.00×10^−5% (m/m) TMA were evaluated. The concentration doubled in each step.
The aqueous solutions were buffered with TRIS (50 mM), and the pH was adjusted to 9 to have approximately 13% of the TMA in a deprotonated and thus volatile form. Furthermore, an odorless emulsifier was added to a final concentration of 3% (m/m) to dissolve Timberol®.
In a second step, the influence of Timberol® on the perception of TMA was investigated using a psychophysical approach. Therefore the detection thresholds of TMA alone and in the presence of suprathreshold concentrations of Timberol® were tested. Threshold measurements were performed in a 3-alternative forced-choice design according to ISO 13301. A total of 10 concentrations (binary dilution steps) ranging from […] to 1.00×10^−5% (m/m) TMA were examined.

hOR51E1 [2] = target: T2, hOR51E1 (Homo sapiens, UniProt Q8TCB6); assay: Cre-luciferase reporter gene assay, concentration-response curve of nonanoic acid on hOR51E1 (Dual-Glo Luciferase, transfected HANA3A cells); type: cell-based; set-up: expressed in transfected cells; host or cells: HANA3A; conditions: agonist alone; human olfactory receptor hOR51E1 recombinantly expressed in HANA3A cells with RTP1S, G-protein αolf, M3 muscarinic acetylcholine receptor, pGL4-luciferase and pRL-TK-Renilla reporters; 4 h at 37° C.; Hill fit; n=3 in duplicate; FIG. 4B left
T2 sequence (Q8TCB6 1-318): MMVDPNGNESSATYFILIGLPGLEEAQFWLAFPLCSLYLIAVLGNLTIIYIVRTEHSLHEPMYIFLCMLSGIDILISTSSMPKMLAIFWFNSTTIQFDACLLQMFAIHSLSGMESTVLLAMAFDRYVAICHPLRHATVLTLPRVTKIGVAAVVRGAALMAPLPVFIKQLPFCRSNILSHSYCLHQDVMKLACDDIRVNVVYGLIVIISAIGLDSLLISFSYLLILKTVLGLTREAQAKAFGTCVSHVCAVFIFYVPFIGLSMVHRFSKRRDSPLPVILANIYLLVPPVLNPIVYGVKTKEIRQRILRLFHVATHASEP
Protocol: (§1) In order to identify suitable antagonist for TMA the protocol of Zhuang and Matsunami for measuring receptor activity with the Dual-Glo Luciferase Assay System (Promega) was adapted [see Nat. Protoc. 3(9), p. 1402-1413 (2008)]. HANA3A cells were maintained under standard conditions in DMEM supplemented with 10% FBS and 100 units/ml penicillin and streptomycin at 37° C. Cells (approximately 15,000 cells/well) were plated on poly-D-lysine-coated 96-well plates (NUNC) and transfected after 24 h with the FuGENE® HD (Promega) transfection reagent according to the manufacturer's protocol. […] Expression rates of Cre-luciferase were monitored by luminescent enzymatic reactivity. Thus, luminescence signals correlate with receptor activation. […]
(§2) For statistical analysis of Cre-luciferase assay data, two-tailed unpaired Student's t-test. […] Sensory data was analyzed using non-parametric statistical tests. The overall difference between the group thresholds was determined by a Kruskal-Wallis test, followed by a Dunn post-hoc test for the respective pairwise comparisons.
(§3) Another experiment was directed to figure out whether the Timberol® block is exclusively mediated by hTAAR5. […] Then the impact of Timberol® on MOR42-3- and hOR51E1-mediated responses to the respective agonists was tested with concentrations below and above the calculated EC50 values. […]

hTAAR5 [3] = target: T1, hTAAR5; assay: Cre-luciferase reporter gene assay, hTAAR5-mediated responses to TMA in transfected HANA3A cells; type: cell-based; conditions: for reduction / inhibition of hTAAR5-mediated TMA responses: TMA 300 μM, putative antagonist 100 μM; for IC50: read-out: half maximal inhibitory concentration (IC50)
Protocol: (§4) In order to identify suitable antagonist for TMA the protocol of Zhuang and Matsunami for measuring receptor activity with the Dual-Glo Luciferase Assay System (Promega) was adapted [see Nat. Protoc. 3(9), p. 1402-1413 (2008)]. HANA3A cells were maintained under standard conditions in DMEM supplemented with 10% FBS and 100 units/ml penicillin and streptomycin at 37° C. Cells (approximately 15,000 cells/well) were plated on poly-D-lysine-coated 96-well plates (NUNC) and transfected after 24 h with the FuGENE® HD (Promega) transfection reagent according to the manufacturer's protocol. In a 96-well plate, we placed 18 μl transfection reagent, 1-5 μg receptor plasmid, 2 μg pGL4-luciferase reporter, 1 μg pRL-TK-Renilla reporter, 0.5 μg G-protein αolf, 1 μg receptor transport protein (RTP1S) and 1 μg M3 muscarinic acetylcholine receptor (for hOR51E1) to ensure cell surface expression. Cells were stimulated 24 h after transfection for 4 h at 37° C. with test substances diluted in CD 293 medium (1×) (Life Technologies) with 2 mM L-glutamine (Life Technologies) added. After stimulation with test substances, recombinant hTAAR5 activation elevated cAMP and the subsequent expression of the cAMP-dependent reporter gene construct Cre-luciferase. Expression rates of Cre-luciferase were monitored by luminescent enzymatic reactivity. Thus, luminescence signals correlate with receptor activation. The Renilla luciferase reporter driven by a constitutively active TK-promoter (pRL-TK-Renilla) served as an internal control to determine cell viability and transfection efficiency. Firefly luciferase activity to the Renilla luciferase signal was normalized for all wells. The ratios of antagonistic stimulation were normalized to the ratios of agonist stimulation. Furthermore, mock-transfected cells were stimulated to exclude unspecific responses to the tested substances.
To identify blocker substances for hTAAR5-mediated responses to TMA, the Cre-luciferase reporter gene assay was used. Human TAAR5-transfected HANA3A cells were stimulated with a mix of the agonist TMA (300 μM) and 100 μM of a potential blocker substance (FIG. 1).
For more detailed information concerning the type of antagonism (competitive vs. non-competitive) in the following experiments, the pharmacological profile of Timberol® was characterized. To test the concentration dependency of the Timberol® block, a concentration-inhibition curve (FIG. 2a) was measured. The blocking effect was increased with increasing concentrations of Timberol® and decreased with increasing concentrations of the agonist TMA. The latter was reflected by a significant concentration-inhibition curve shift.

MOR42-3 [4] = target: T3, MOR42-3 (Mus musculus, UniProt E9PX47); assay: Cre-luciferase reporter gene assay, concentration-response curve of azelaic acid on MOR42-3 (Dual-Glo Luciferase, transfected HANA3A cells); type: cell-based; conditions: agonist alone; murine olfactory receptor MOR42-3 recombinantly expressed in HANA3A cells with RTP1S, G-protein αolf, pGL4-luciferase and pRL-TK-Renilla reporters; 4 h at 37° C.; Hill fit; n=3 in duplicate; FIG. 4A left
T3 construct: CRE-luciferase readout normalized to Renilla
T3 sequence (E9PX47 1-334): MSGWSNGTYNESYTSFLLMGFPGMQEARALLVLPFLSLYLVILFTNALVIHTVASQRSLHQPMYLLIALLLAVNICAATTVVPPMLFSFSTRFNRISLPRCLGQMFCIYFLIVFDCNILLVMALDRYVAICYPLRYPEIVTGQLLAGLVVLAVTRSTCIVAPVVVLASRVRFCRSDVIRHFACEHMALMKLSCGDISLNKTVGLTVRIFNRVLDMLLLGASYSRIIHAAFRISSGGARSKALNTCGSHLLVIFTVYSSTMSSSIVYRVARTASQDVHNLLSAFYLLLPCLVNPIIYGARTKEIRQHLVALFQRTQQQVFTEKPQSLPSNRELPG
Protocol: as §1, §2, §3

murine TAAR5 = target: T4, murine TAAR5 (Mus musculus, UniProt Q5QD14); assay: Cre-luciferase assay, murine TAAR5 responses to TMA; type: cell-based; conditions: Timberol 100 μM
T4 construct: expressed in transfected cells; host or cells: HANA3A cells
T4 sequence (Q5QD14 1-337): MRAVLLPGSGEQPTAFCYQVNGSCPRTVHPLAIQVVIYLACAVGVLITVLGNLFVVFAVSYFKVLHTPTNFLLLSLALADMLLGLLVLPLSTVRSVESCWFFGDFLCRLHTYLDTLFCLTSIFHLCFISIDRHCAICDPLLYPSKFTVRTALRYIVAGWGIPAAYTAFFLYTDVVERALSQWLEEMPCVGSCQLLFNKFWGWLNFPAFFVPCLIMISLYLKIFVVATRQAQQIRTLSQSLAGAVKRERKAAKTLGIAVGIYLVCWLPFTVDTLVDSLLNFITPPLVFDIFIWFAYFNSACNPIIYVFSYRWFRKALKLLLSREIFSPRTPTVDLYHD

hOR51E1 [5] = target: T2, hOR51E1; assay: Cre-luciferase assay, hOR51E1-mediated responses to nonanoic acid; type: cell-based; set-up: expressed in transfected cells; host or cells: HANA3A cells; conditions: Timberol 30 μM; agonist below and above EC50
Protocol: as §1, with “protocol. In a 96-well plate, we placed 18 μl transfection reagent, 1-5 μg receptor plasmid, 2 μg pGL4-luciferase reporter, 1 μg pRL-TK-Renilla reporter, 0.5 μg G-protein αolf, 1 μg receptor transport protein (RTP1S) and 1 μg M3 muscarinic acetylcholine receptor (for hOR51E1) to ensure cell surface expression.” for “protocol.”
as §3

MOR42-3 [6] = assay: Cre-luciferase assay, MOR42-3-mediated responses to azelaic acid; type: cell-based, murine; conditions: Timberol 30 μM; agonist below and above EC50
Protocol: as §1, with “protocol. In a 96-well plate, we placed 18 μl transfection reagent, 1-5 μg receptor plasmid, 2 μg pGL4-luciferase reporter, 1 μg pRL-TK-Renilla reporter, 0.5 μg G-protein αolf, 1 μg receptor transport protein (RTP1S) and 1 μg M3 muscarinic acetylcholine receptor (for hOR51E1) to ensure cell surface expression.” for “protocol.”
as §3

intracellular cAMP = assay: Control experiments: intracellular cAMP level in hTAAR5-transfected HANA3A cells (basal and forskolin-stimulated); type: cell-based, human
Protocol: as §4, with “The Renilla luciferase reporter driven by a constitutively active TK-promoter (pRL-TK-Renilla) served as an internal control to determine cell viability and transfection efficiency. Firefly luciferase activity to the Renilla luciferase signal was normalized for all wells. The ratios of antagonistic stimulation were normalized to the ratios of agonist stimulation. Furthermore, mock-transfected cells were stimulated to exclude unspecific responses to the tested substances.” left out

CN(C)C [TMA, trimethylamine, reference compound]
activation of hTAAR5 (hTAAR5 [1]): specifically activated | detection threshold in humans (humans): 0.00047 ppm | olfactory detection threshold of TMA (panelists; TMA alone): 2.0×10^−7 % (m/m) | olfactory detection threshold of TMA (panelists; in the presence of Timberol (1% m/m)): 1.0×10^−6 % (m/m)

CN [methylamine]
detection threshold in humans (humans): 180 ppm

CCCCCCCCC(=O)O [Nonanoic acid, nonanoic acid]
EC50 (hOR51E1 [2]): 103 ± 23.1 µM

CC(C)C1CCC(C(C)O)CC1 (stereo not drawn) [Mugetanol, reference compound]
reduction / inhibition of hTAAR5-mediated TMA responses (hTAAR5 [3]): does not inhibit | influence of additive on TMA detection threshold / perception (panelists): does not influence significantly

O=C(O)CCCCCCCC(=O)O [Azelaic acid, azelaic acid]
EC50 (MOR42-3 [4]): 2.67 ± 0.47 µM

CCN(C)C [DMEA, dimethylethylamine]
activation of hTAAR5 (hTAAR5 [1]): less efficacy and potency

CCCC(O)CCC1C(C)CCCC1(C)C (stereo not drawn) [Timberol®, Norlimbanol]
blocking effect on murine TAAR5 (murine TAAR5; 1 μM TMA): 34%±2% | inhibition of mTAAR5-mediated responses to TMA (murine TAAR5): able to block; also recorded: inhibits | blocking effect on hOR51E1-mediated responses to nonanoic acid (hOR51E1 [5]): no any significant impact; also recorded: No significant blocking effects | blocking effect on MOR42-3-mediated responses to azelaic acid (MOR42-3 [6]): no any significant impact; also recorded: No significant blocking effects | block of average hTAAR5 responses (hTAAR5 [3]; 30 μM Timberol): at least 50% | block of hTAAR5 response (hTAAR5 [3]; 30 μM Timberol, 30 μM TMA): ~78% | block of hTAAR5 response (hTAAR5 [3]; 30 μM Timberol, 100 μM TMA): ~56% | blocking effect (hTAAR5 [3]; 100 μM Timberol, 30 μM TMA): ~96% and 96%±1.7% | blocking effect (hTAAR5 [3]; 100 μM Timberol, 100 μM TMA): 86%±3.6% | inhibition of hTAAR5 responses to TMA (hTAAR5 [3]; 100 μM Timberol, 300 μM TMA): 72%±6% | IC50 (hTAAR5 [3]; TMA 30 μM): 16.6 µM | IC50 (hTAAR5 [3]; TMA 100 μM): 27.8 µM | reduction / inhibition of hTAAR5-mediated TMA responses (hTAAR5 [3]): nearly completely block | basal cAMP production (intracellular cAMP; Timberol (100 μM) alone vs unstimulated controls): No significant reduction; also recorded: did not affect | cAMP levels after forskolin (intracellular cAMP; Timberol (100 μM) mixed with 10 μM forskolin vs forskolin alone): no significant difference; also recorded: did not affect | influence of additive on TMA detection threshold / perception (panelists): abolished the ability to perceive TMA around perithreshold concentrations; also recorded: shifted to a significantly higher concentration | subjects less sensitive to TMA in the presence of Timberol (panelists; of the 27 tested subjects): 23
